Laboratory results taken from US7531320B2, “Modulation of β-catenin/TCF-activated transcription” (priority 2003, dated 2009).

Key:
[1] = target: T1, β-catenin/CBP complex (Homo sapiens, UniProt Q92793); assay: Co-immunoprecipitation of β-catenin with CBP in SW480 cells; type: cell-based
T1 construct: endogenous in cells; host or cells: SW480
Description: FIG. 3. COMPOUND 1 disrupts the β-catenin/CBP complex but not the p300/β-catenin complex. • A. Full-length Xenopus laevis β-catenin (1.1, 2.2, and 3.3 μg) or murine CBP (0.14, 0.28, 0.55, 1.1, and 2.2 μg) plasmids were cotransfected in SW480 cells along with the β-catenin/TCF (1.1 μg) reporter gene construct. Empty pcDNA3 vector was used to equalize the amount of DNA used in each reaction. Dual luciferase assays were performed 24 hours post COMPOUND 1 treatment. All experiments were performed in duplicate and values plotted as means +/−standard deviation. • B. COMPOUND 1 competes with β-catenin for CBP. SW480 cells were treated with 5 or 10 μM of COMPOUND 1 or control (0.5% DMSO). 24 hours post treatment, lysates were incubated with beads coated with either control the antibody, or anti-CBP, or anti-p300 antibodies. Co-immunoprecipitated proteins were subjected to gel electrophoresis and immunoblotting using anti-β-catenin antibodies. The arrows point to the immunoprecipitated β-catenin (doublets). • C. CBP (1-111) is the minimal region of interaction with β-catenin. SW480 cells transfected with a CBP deletion series were subjected to immunoprecipitation using anti-β-catenin antibodies coated on Protein A-agarose beads. The immune complexes were washed and subjected to gel electrophoresis followed by immunoblotting using anti-His antibodies. […]

[2] = target: T2, CBP (1-111) (Mus musculus, UniProt P45481); assay: Pull-down of CBP deletion constructs on COMPOUND 2 coated beads, competition with excess COMPOUND 1; type: binding; conditions: CBP (1-111), (1-211), (1-351) in SW480 lysates, 150 μM COMPOUND 1
T2 construct: 6xHis (C); HSV tag (C); expressed in transfected cells
T2 sequence (P45481 1-110): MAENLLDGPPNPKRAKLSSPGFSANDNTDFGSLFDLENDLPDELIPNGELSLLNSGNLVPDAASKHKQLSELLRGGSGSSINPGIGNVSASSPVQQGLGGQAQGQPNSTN

T1 sequence (Q92793 whole entry, one chain of several): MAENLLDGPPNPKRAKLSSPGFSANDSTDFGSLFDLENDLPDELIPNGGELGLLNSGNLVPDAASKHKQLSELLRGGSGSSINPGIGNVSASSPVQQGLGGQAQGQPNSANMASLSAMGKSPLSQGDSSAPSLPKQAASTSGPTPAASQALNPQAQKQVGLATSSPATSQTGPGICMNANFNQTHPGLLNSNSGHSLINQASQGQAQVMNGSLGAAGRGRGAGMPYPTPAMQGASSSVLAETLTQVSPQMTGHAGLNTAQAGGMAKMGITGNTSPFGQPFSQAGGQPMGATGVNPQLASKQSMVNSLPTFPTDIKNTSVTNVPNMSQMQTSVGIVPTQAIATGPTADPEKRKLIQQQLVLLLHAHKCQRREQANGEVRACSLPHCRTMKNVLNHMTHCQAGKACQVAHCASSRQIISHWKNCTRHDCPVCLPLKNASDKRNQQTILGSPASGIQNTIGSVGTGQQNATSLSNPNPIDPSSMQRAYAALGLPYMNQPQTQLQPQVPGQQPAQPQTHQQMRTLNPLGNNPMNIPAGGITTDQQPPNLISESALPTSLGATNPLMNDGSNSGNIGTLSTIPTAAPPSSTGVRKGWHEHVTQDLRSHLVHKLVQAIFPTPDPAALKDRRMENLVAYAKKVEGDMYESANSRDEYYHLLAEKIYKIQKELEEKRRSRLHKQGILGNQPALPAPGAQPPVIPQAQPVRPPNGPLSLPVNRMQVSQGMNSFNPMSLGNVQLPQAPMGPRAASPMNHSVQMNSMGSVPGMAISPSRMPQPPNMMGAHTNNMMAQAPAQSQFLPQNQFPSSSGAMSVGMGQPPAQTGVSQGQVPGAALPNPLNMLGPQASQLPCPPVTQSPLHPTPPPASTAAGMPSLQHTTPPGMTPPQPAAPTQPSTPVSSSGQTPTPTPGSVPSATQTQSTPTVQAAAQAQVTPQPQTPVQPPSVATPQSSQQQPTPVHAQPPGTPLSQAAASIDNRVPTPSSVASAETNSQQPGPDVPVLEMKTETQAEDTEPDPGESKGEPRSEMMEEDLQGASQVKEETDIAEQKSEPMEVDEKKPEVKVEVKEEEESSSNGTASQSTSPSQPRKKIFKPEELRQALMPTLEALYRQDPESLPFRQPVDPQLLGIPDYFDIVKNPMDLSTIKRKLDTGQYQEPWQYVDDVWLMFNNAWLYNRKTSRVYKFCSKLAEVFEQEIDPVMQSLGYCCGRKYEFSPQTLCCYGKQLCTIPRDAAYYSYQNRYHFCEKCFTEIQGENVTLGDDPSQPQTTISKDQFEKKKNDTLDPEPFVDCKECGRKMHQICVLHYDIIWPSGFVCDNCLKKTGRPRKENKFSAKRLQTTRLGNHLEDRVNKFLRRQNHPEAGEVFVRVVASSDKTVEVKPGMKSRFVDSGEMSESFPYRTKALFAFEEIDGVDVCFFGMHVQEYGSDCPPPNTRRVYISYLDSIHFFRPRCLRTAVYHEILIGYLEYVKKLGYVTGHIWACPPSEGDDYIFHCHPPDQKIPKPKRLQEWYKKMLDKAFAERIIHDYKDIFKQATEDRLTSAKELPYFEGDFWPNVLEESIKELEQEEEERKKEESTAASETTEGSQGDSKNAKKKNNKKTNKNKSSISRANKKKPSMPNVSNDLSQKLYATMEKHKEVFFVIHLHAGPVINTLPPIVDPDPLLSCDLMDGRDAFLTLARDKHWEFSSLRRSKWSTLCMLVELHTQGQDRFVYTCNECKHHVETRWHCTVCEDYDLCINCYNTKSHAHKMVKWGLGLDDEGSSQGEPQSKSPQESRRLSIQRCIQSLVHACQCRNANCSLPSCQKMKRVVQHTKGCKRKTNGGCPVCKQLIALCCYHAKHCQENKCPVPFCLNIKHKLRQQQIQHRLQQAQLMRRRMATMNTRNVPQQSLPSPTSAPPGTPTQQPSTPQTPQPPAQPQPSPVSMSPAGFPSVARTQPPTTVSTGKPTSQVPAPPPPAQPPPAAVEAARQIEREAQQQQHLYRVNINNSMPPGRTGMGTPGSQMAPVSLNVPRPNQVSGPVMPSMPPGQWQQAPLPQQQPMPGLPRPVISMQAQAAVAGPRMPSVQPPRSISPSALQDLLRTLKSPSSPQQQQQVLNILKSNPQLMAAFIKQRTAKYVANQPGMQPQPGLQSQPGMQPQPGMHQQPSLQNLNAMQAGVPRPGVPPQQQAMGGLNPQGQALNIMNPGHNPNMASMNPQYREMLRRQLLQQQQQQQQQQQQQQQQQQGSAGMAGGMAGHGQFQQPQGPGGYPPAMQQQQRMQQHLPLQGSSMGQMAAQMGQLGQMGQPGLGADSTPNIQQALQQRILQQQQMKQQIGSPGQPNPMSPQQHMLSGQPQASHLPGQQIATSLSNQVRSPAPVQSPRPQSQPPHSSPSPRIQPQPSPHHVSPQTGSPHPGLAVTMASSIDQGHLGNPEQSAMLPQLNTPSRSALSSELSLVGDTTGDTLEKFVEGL

SMILES: O=C1C(Cc2ccc(O)cc2)N2C(=O)CCN(C(=O)NCc3ccccc3)C2CN1Cc1cccc2ccccc12 (stereo not drawn) [COMPOUND 1]
- CBP fragments binding to immunoprecipitated β-catenin in presence of excess COMPOUND 1 ([1]; CBP (1-111), (1-211), (1-351), 50 μM COMPOUND 1): dramatically competed away
- Immunoprecipitation of β-catenin with CBP ([1]; SW480 cells, 5 or 10 μM, 24 hours, concentration dependent): inhibited
- Competition of CBP fragment binding to COMPOUND 2 beads by excess COMPOUND 1 [2]: strongly competed away
